From PubChem BioAssay AID1259411 (Chemical Carcinogenesis Research Information System (CCRIS), 2018)
Calls of active or inactive are those of the source. The rule behind the calls is not given here.

System: rodent carcinogenicity bioassays, tumor incidence
Assay: CCRIS carcinogenicity studies
How it was run: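 Archive of carcinogenicity, mutagenicity, tumor promotion and tumor inhibition results drawn from journals, NCI reports and other sources, expert-reviewed; covers 1985-2011 and is no longer updated.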

[1] = Species: MOUSE, Route: DERMAL, Tumor Site: Type of Lesion: INTEGUMENTARY SYSTEM (SKIN)

Question: With `OC(Cn1cncn1)(Cn1cncn1)c1ccc(F)cc1F` as the compound, how does the carcinogen call (Species: RAT, Strain/Sex: SPRAGUE-DAWLEY/FEMALE, Route: ORAL, Dose: 0, 2.5, 5, 10 MG/KG IN DIET FOR 24 MO (STUDY DURATION: 24 MO), Dose: 0, 2.5, 5, 10 MG/KG IN DIET FOR 24 MO (STUDY DURATION: 24 MO)) read?
Answer: Its carcinogen call is “inactive; negative”.

Question: What about the carcinogen call (Species: RAT, Strain/Sex: SPRAGUE-DAWLEY/MALE, Route: ORAL, Dose: 0, 2.5, 5, 10 MG/KG IN DIET FOR 24 MO (STUDY DURATION: 24 MO), Dose: 0, 2.5, 5, 10 MG/KG IN DIET FOR 24 MO (STUDY DURATION: 24 MO), Tumor Site: Type of Lesion: LIVER: HEPATOCELLULAR ADENOMA) of the same compound?
Answer: Its carcinogen call is “active; positive”.

Question: How did the carcinogen call (Species: MOUSE, Strain/Sex: B6C3F1/FEMALE, Route: GAVAGE, Dose: 0, 15, 30 MG/KG IN CORN OIL FOR 103 WK (STUDY DURATION: 105 WK), Dose: 0, 15, 30 MG/KG IN CORN OIL FOR 103 WK (STUDY DURATION: 105 WK), Tumor Site: Type of Lesion: FORESTOMACH: SQUAMOUS CELL PAPILLOMA) turn out when `CN(C)c1ccccc1` was run?
Answer: Its carcinogen call is “equivocal”.

Question: And the carcinogen call (Species: MOUSE, Strain/Sex: B6C3F1/MALE, Route: GAVAGE, Dose: 0, 15, 30 MG/KG IN CORN OIL FOR 103 WK (STUDY DURATION: 105 WK), Dose: 0, 15, 30 MG/KG IN CORN OIL FOR 103 WK (STUDY DURATION: 105 WK))?
Answer: Its carcinogen call is “inactive; negative”.

Question: What about the carcinogen call (Species: RAT, Strain/Sex: F344/FEMALE, Route: GAVAGE, Dose: 0, 3, 30 MG/KG IN CORN OIL 5 D/WK FOR 103 WK (STUDY DURATION: 105 WK), Dose: 0, 3, 30 MG/KG IN CORN OIL 5 D/WK FOR 103 WK (STUDY DURATION: 105 WK)) of the same compound?
Answer: The carcinogen call was “inactive; negative”.

Question: And the carcinogen call (Species: RAT, Strain/Sex: F344/MALE, Route: GAVAGE, Dose: 0, 3, 30 MG/KG IN CORN OIL 5 D/WK FOR 103 WK (STUDY DURATION: 105 WK), Dose: 0, 3, 30 MG/KG IN CORN OIL 5 D/WK FOR 103 WK (STUDY DURATION: 105 WK), Tumor Site: Type of Lesion: SPLEEN: SARCOMA, SARCOMA OR OSTEOSARCOMA)?
Answer: The carcinogen call was “active; positive”.

Question: For `CC(=O)CC(C)C`, which carcinogen call (Species: Mouse, Strain/Sex: B6C3F1/N/Female, Route: Inhalation, Dose: 0, 450, 900, 1800 ppm 6 hr and 12 min/day, 5 d/wk for 105 wks, Dose: 0, 450, 900, 1800 ppm 6 hr and 12 min/day, 5 d/wk for 105 wks, Tumor Site: Type of Lesion: Liver: Hepatocellular adenoma (13/50, 15/50, 20/50, 23/50), Hepatocellular carcinoma (6/50, 5/50, 6/50, 11/50), Hepatoce, Tumor Site: Type of Lesion: Liver: Hepatocellular adenoma (13/50, 15/50, 20/50, 23/50), Hepatocellular carcinoma (6/50, 5/50, 6/50, 11/50), Hepatoce) is on record?
Answer: The carcinogen call was “equivocal”.

Question: What about the carcinogen call (Species: Mouse, Strain/Sex: B6C3F1/N/Male, Route: Inhalation, Dose: 0, 450, 900, 1800 ppm 6 hr and 12 min/day, 5 d/wk for 105 wks, Dose: 0, 450, 900, 1800 ppm 6 hr and 12 min/day, 5 d/wk for 105 wks, Tumor Site: Type of Lesion: Liver: Hepatocellular adenoma (17/50, 25/50, 23/50, 34/50), Hepatocellular carcinoma (12/50, 12/50, 10/50, 9/50), Hepato, Tumor Site: Type of Lesion: Liver: Hepatocellular adenoma (17/50, 25/50, 23/50, 34/50), Hepatocellular carcinoma (12/50, 12/50, 10/50, 9/50), Hepato) of the same compound?
Answer: Its carcinogen call is “active; positive (ntp describes as some evidence)”.

Question: What about the carcinogen call (Species: Rat, Strain/Sex: F344/N/Female, Route: Inhalation, Dose: 0, 450, 900, 1800 ppm 6 hr and 12 min/d, 5 d/wk for 104 wks, Dose: 0, 450, 900, 1800 ppm 6 hr and 12 min/d, 5 d/wk for 104 wks, Tumor Site: Type of Lesion: Mesenchymal tumor malignant: (0/50, 0/50, 0/50, 2/50)) of the same compound?
Answer: The carcinogen call was “equivocal”.

Question: What about the carcinogen call (Species: Rat, Strain/Sex: F344/N/Male, Route: Inhalation, Dose: 0, 450, 900, 1800 ppm 6 hr and 12 min/d, 5 d/wk for 104 wks, Dose: 0, 450, 900, 1800 ppm 6 hr and 12 min/d, 5 d/wk for 104 wks, Tumor Site: Type of Lesion: Kidney: Renal tubule adenoma (2/50, 3/50, 3/50, 10/50), Renal tubule carcinoma (0/50, 1/50, 0/50, 2/50), Renal tubule ad, Tumor Site: Type of Lesion: Kidney: Renal tubule adenoma (2/50, 3/50, 3/50, 10/50), Renal tubule carcinoma (0/50, 1/50, 0/50, 2/50), Renal tubule ad) of the same compound?
Answer: Its carcinogen call is “active; positive (ntp describes as some evidence)”.

Question: With `O=c1[nH]cc(F)c(=O)[nH]1` as the compound, how does the carcinogen call (Species: MOUSE, Strain/Sex: B6C3F1/FEMALE, Route: ORAL, Dose: 0, 30, 60 PPM IN DRINKING WATER FOR 82 WK (STUDY DURATION: 86 WK), Dose: 0, 30, 60 PPM IN DRINKING WATER FOR 82 WK (STUDY DURATION: 86 WK)) read?
Answer: The carcinogen call was “inactive; negative”.

Question: What about the carcinogen call (Species: MOUSE, Strain/Sex: B6C3F1/MALE, Route: ORAL, Dose: 0, 30, 60 PPM IN DRINKING WATER FOR 82 WK (STUDY DURATION: 86 WK), Dose: 0, 30, 60 PPM IN DRINKING WATER FOR 82 WK (STUDY DURATION: 86 WK)) of the same compound?
Answer: Its carcinogen call is “inactive; negative”.

Question: What about the carcinogen call (Species: MOUSE, Strain/Sex: BALB/FEMALE, Route: INTRAPERITONEAL, Dose: 0, 30 MG/KG IN STERILE SALINE 1/WK FOR 50 WK (STUDY DURATION: 105 WK), Tumor Site: Type of Lesion: LUNG: TUMOR, LYMPHORETICULAR SYSTEM: LYMPHOMA OR LEUKEMIA) of the same compound?
Answer: Its carcinogen call is “active; positive”.

Question: What about the carcinogen call (Species: MOUSE, Strain/Sex: BALB/MALE, Route: INTRAPERITONEAL, Dose: 0, 30 MG/KG IN STERILE SALINE 1/WK FOR 50 WK (STUDY DURATION: 105 WK), Tumor Site: Type of Lesion: LUNG: TUMOR) of the same compound?
Answer: The carcinogen call was “active; positive”.

Question: And the carcinogen call (Species: RAT, Strain/Sex: F344/FEMALE, Route: ORAL, Dose: 0, 62, 125 PPM IN DRINKING WATER FOR 111 WK (STUDY DURATION: 111 WK), Dose: 0, 62, 125 PPM IN DRINKING WATER FOR 111 WK (STUDY DURATION: 111 WK))?
Answer: Its carcinogen call is “inactive; negative”.

Question: And the carcinogen call (Species: RAT, Strain/Sex: F344/MALE, Route: ORAL, Dose: 0, 62, 125 PPM IN DRINKING WATER FOR 111 WK (STUDY DURATION: 111 WK), Dose: 0, 62, 125 PPM IN DRINKING WATER FOR 111 WK (STUDY DURATION: 111 WK))?
Answer: The carcinogen call was “inactive; negative”.

Question: `CN(C)C(=O)Cl` was tested. Which carcinogen call [1] did it give?
Answer: Its carcinogen call is “active; positive”.

Question: What about the carcinogen call (Species: MOUSE, Route: INTRAPERITONEAL, SUBCUTANEOUS, Tumor Site: Type of Lesion: INJECTION SITE) of the same compound?
Answer: The carcinogen call was “active; positive”.

Question: For `CC1CC2OC2CC1COC(=O)C1CC2OC2CC1C` (configuration not stated), which carcinogen call [1] is on record?
Answer: The carcinogen call was “active; positive”.

Question: `CCOS(C)(=O)=O` was tested. Which carcinogen call (Species: MOUSE, Route: INTRAPERITONEAL, Tumor Site: Type of Lesion: LUNG, KIDNEY) did it give?
Answer: Its carcinogen call is “active; positive”.

Question: And the carcinogen call (Species: MOUSE, Route: SUBCUTANEOUS, Tumor Site: Type of Lesion: LUNG)?
Answer: Its carcinogen call is “active; positive”.

Question: And the carcinogen call (Species: MOUSE, Strain/Sex: ICR/FEMALE, Route: SUBCUTANEOUS, Dose: 0, 20 UMOL/MOUSE IN TRIOCTANOIN INTO LEFT FLANK, 1/WK FOR 52 WK (STUDY DURATION: 450 D), Tumor Site: Type of Lesion: THYMUS GLAND: LYMPHOMA, LUNG: ADENOMA)?
Answer: The carcinogen call was “active; positive”.

Question: What about the carcinogen call (Species: RAT, Route: INTRAPERITONEAL, Tumor Site: Type of Lesion: LUNG, KIDNEY) of the same compound?
Answer: The carcinogen call was “active; positive”.

Question: For `c1ccc(-c2ccccc2)cc1`, which carcinogen call (Species: MOUSE, Strain/Sex: CRJ:BDF1/FEMALE, Route: ORAL, Dose: 667, 2000, 6000 PPM IN DIET FOR 2 YRS (STUDY DURATION: 2 YRS), Dose: 667, 2000, 6000 PPM IN DIET FOR 2 YRS (STUDY DURATION: 2 YRS), Tumor Site: Type of Lesion: LIVER: HEPATOCELLULAR ADENOMA AND CARCINOMA) is on record?
Answer: The carcinogen call was “active; positive”.

Question: And the carcinogen call (Species: MOUSE, Strain/Sex: CRJ:BDF1/MALE, Route: ORAL, Dose: 0, 667, 2000, 6000 PPM IN DIET FOR 2 YRS (STUDY DURATION: 2 YRS), Dose: 0, 667, 2000, 6000 PPM IN DIET FOR 2 YRS (STUDY DURATION: 2 YRS))?
Answer: The carcinogen call was “inactive; negative”.

Question: And the carcinogen call (Species: RAT, Strain/Sex: F344/FEMALE, Route: ORAL, Dose: 0, 500, 1500, 4500 PPM IN DIET FOR 105 WK (STUDY DURATION: 105 WK ), Dose: 0, 500, 1500, 4500 PPM IN DIET FOR 105 WK (STUDY DURATION: 105 WK ))?
Answer: The carcinogen call was “inactive; negative”.

Question: And the carcinogen call (Species: RAT, Strain/Sex: F344/MALE, Route: ORAL, Dose: 0, 500, 1500, 4500 PPM IN DIET FOR 105 WK (STUDY DURATION: 105 WK ), Dose: 0, 500, 1500, 4500 PPM IN DIET FOR 105 WK (STUDY DURATION: 105 WK ), Tumor Site: Type of Lesion: URINARY BLADDER: TRANSITIONAL CELL PAPILLOMA, TRANSITIONAL CELL CARCINOMA)?
Answer: Its carcinogen call is “active; positive”.
